{"source": "paper PMC10998830", "about": "(Communications Chemistry, 2024)", "key": {"AbATPPRT [1]": {"target": "T1, AbATPPRT (Acinetobacter baumannii, UniProt A0A7U3XWM9)", "T1 construct": "gene hisG; hetero-octameric holoenzyme (two HisGS dimers flanking a HisZ tetramer) reconstituted in vitro from separately purified recombinant AbHisGS (E. coli BL21(DE3)) and AbHisZ; unlabelled (natural isotope abundance)", "T1 sequence (A0A7U3XWM9 1-227)": "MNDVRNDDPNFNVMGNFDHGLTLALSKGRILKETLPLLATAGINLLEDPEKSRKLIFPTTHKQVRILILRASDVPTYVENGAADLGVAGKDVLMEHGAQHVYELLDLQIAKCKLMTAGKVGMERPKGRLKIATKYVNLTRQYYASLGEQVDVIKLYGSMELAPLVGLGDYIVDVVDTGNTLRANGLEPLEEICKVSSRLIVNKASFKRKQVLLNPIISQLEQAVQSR", "T1 sequence (B2HWK9 1-388 partner)": "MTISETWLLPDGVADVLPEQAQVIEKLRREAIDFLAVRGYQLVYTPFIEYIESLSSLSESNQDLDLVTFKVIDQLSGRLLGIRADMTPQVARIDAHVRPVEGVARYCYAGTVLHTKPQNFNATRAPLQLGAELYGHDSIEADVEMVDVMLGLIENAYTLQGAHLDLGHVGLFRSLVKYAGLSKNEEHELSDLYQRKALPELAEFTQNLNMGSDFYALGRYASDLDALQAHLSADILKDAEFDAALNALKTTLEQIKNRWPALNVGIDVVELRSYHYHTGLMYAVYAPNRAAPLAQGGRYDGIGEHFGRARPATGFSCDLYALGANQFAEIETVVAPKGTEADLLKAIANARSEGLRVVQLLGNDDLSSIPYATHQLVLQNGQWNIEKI", "experiment": "dose-response of initial rate, PRATP formation", "format": "biochemical"}, "AbATPPRT [2]": {"target": "T1, AbATPPRT", "experiment": "differential scanning fluorimetry, SYPRO Orange", "format": "binding", "details": "250 μM PRATP, 8 μM enzyme, pH 8.5, 15 mM MgCl2, 100 mM KCl; unlabelled enzyme"}}}
{"molecule": "N[C@@H](Cc1c[nH]cn1)C(=O)O", "note": "[histidine]", "values": [{"measurement": "IC50", "setting": "AbATPPRT [1]", "result": "93 ± 6", "unit": "µM"}]}
{"molecule": "N=c1c2ncn([C@@H]3O[C@H](COP(=O)(O)OP(=O)(O)OP(=O)(O)O)[C@@H](O)[C@H]3O)c2ncn1[C@@H]1O[C@H](COP(=O)(O)O)[C@@H](O)[C@H]1O", "note": "[PRATP]", "values": [{"measurement": "Tm increase", "setting": "AbATPPRT [2]", "result": "the presence of PRATP led only to marginal and mass-independent increases in Tm"}]}
